The supplement of paper PMC10307832

Legend:
Assay in all cases: relative viability (nuclei count vs DMSO), 5 days (fraction); higher = more cells survive
RAF265 + Lapatinib = compound: Cn1c(Nc2ccc(C(F)(F)F)cc2)nc2cc(Oc3ccnc(-c4ncc(C(F)(F)F)[nH]4)c3)ccc21 [RAF265] + CS(=O)(=O)CCNCc1ccc(-c2ccc3ncnc(Nc4ccc(OCc5cccc(F)c5)c(Cl)c4)c3c2)o1 [Lapatinib] (partner 2 µM)
Outline: (§1)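 Relative viability was taken as the ratio of nuclei in treated wells to nuclei in vehicle wells. Lung cancer cell lines in 1536-well plates received compounds by pin tool one day after seeding, either one drug alone or a fixed anchor-drug dose plus five library-drug doses (not always all listed) in √10 steps. Nuclei were counted on 4× images after 5 days of treatment, and values are medians of duplicate plates.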

IPA-3 + Foretinib = compound: C1=CC=C2C(=C1)C=CC(=C2SSC3=C(C=CC4=CC=CC=C43)O)O [IPA-3] + COc1cc2c(Oc3ccc(NC(=O)C4(C(=O)Nc5ccc(F)cc5)CC4)cc3F)ccnc2cc1OCCCN1CCOCC1 [Foretinib] (partner 0.25 µM)
Outline: as §1

Doramapimod + Alpelisib = compound: Cc1ccc(-n2nc(C(C)(C)C)cc2NC(=O)Nc2ccc(OCCN3CCOCC3)c3ccccc23)cc1 [Doramapimod] + Cc1nc(NC(=O)N2CCC[C@H]2C(N)=O)sc1-c1ccnc(C(C)(C)C(F)(F)F)c1 [Alpelisib] (partner 2 µM)
Outline: as §1

IPA-3 + Navitoclax = compound: C1=CC=C2C(=C1)C=CC(=C2SSC3=C(C=CC4=CC=CC=C43)O)O [IPA-3] + CC1(C)CCC(c2ccc(Cl)cc2)=C(CN2CCN(c3ccc(C(=O)NS(=O)(=O)c4ccc(N[C@H](CCN5CCOCC5)CSc5ccccc5)c(S(=O)(=O)C(F)(F)F)c4)cc3)CC2)C1 [Navitoclax] (partner 0.5 µM)
Outline: as §1

For UMC-11, the relative viability (RAF265 + Lapatinib; first compound 0.01 µM) was 0.97, the relative viability (RAF265 + Lapatinib; first compound 0.03162 µM) was 0.859 and the relative viability (RAF265 + Lapatinib; first compound 0.1 µM) was 0.968. For the same cell line, the relative viability (RAF265 + Lapatinib; first compound 0.3162 µM) was 1.07, the relative viability (RAF265 + Lapatinib; first compound 1 µM) was 0.776 and the relative viability (IPA-3 + Foretinib; first compound 0.2 µM) was 1.11. For the same cell line, the relative viability (IPA-3 + Foretinib; first compound 0.6325 µM) was 0.983, the relative viability (IPA-3 + Foretinib; first compound 2 µM) was 1.08 and the relative viability (IPA-3 + Foretinib; first compound 6.325 µM) was 1. It also gave a relative viability (IPA-3 + Foretinib; first compound 20 µM) of 1.25, a relative viability (Doramapimod + Alpelisib; first compound 0.02 µM) of 1 and a relative viability (Doramapimod + Alpelisib; first compound 0.06325 µM) of 1.03. For the same cell line, the relative viability (Doramapimod + Alpelisib; first compound 0.2 µM) was 0.891, the relative viability (Doramapimod + Alpelisib; first compound 0.6325 µM) was 0.989 and the relative viability (Doramapimod + Alpelisib; first compound 2 µM) was 0.876. It also gave a relative viability (IPA-3 + Navitoclax; first compound 0.2 µM) of 0.319, a relative viability (IPA-3 + Navitoclax; first compound 0.6325 µM) of 0.306 and a relative viability (IPA-3 + Navitoclax; first compound 2 µM) of 0.321. It also gave a relative viability (IPA-3 + Navitoclax; first compound 6.325 µM) of 0.367 and a relative viability (IPA-3 + Navitoclax; first compound 20 µM) of 0.462.
